# Results as given in US20250368647A1, “NITROGEN CONTAINING CONDENSED 2,3-DIHYDROQUINAZOLINONE COMPOUNDS AS NAV1.8 INHIBITORS” (GLAXOSMITHKLINE INTELLECTUAL PROPERTY DEVELOPMENT LIMITED, priority 2022, published 2025).
# Structures can show the parent of a compound that is named as a salt.
# Target: human Nav1.8 (Homo sapiens (Human), UniProt Q9Y5Y9)
# Assay: QPatch 48 HTX voltage-clamp electrophysiology, half inactivation state (V1/2) protocol, HEK293-Nav1.8 cells
# Type: cell-based
# Conditions: HEK293 cells expressing human Nav1.8, human Navβ1 and human TREK1, P2 current
# Description: Human embryonic kidney 293 cells (HEK293) expressing human Nav1.8, human Navβ1 and human TREK1 (HEK293-Nav1.8) were grown in T150 cell culture flasks at 37° C., 5% CO2 incubator. HEK293-Nav1.8 were passaged every 2-3 days when confluency reached 80-90% in T150 cell culture flasks.
# Pharmacological assessment of compounds of the invention was performed using the QPatch 48 HTX electrophysiological platform. HEK293-Nav1.8 cells were prepared on the day of use by removing culture media, washing in DPBS, adding Accutase (2 mL to cover the surface, aspirate 1 mL then 1-2 minutes at 37° C.) followed by addition of CHO-SFM II to stop the enzyme digestion and in order to obtain a suspension of 3×10^6 cell/mL.
# Compounds of the invention were prepared in an extracellular solution of the following composition: NaCl (145 mM), KCl (4 mM), CaCl2) (2 mM), MgCl (2 mM), HEPES (1 mM), Glucose (10 mM), pH 7.4 with NaOH Osmolality 300 mOsM/L. An intracellular solution of the following composition was used: CsF (115 mM), CsCl (20 mM), NaCl (5 mM), EGTA (10 mM), HEPES (10 mM), Sucrose (20 mM), pH 7.2 with CsOH Osmolality 310 mOsm/L.
# Utilizing the voltage-clamp mode in the QPatch 48 HTX system a half inactivation state voltage protocol (V1/2) was used to determine pharmacological activity of compounds of the invention at Nav1.8 ion channels. A V1/2 protocol was utilized with the following voltage steps: a holding voltage of −100 mV was established followed by a 20 ms voltage step to 0 mV (P1), followed by an inactivating voltage step at −46 mV for 8 seconds, followed by a step to −100 mV for 20 ms, before a 20 ms step to 0 mV (P2), then returned to the holding voltage of −100 mV. This voltage protocol was repeated at a frequency of every 15 seconds, the current magnitude was quantified at the P2 step throughout the recording. Inhibition of the measured current amplitude with compounds of the invention was analyzed by fitting a 4-6 points dose-response curve allowing determination of the fifty percent inhibition concentration (IC50). P2 currents were normalized according to measurements made at baseline (Baseline, vehicle only), after compound (Input, at each test concentration), and after positive reference compound (FullResponse, to achieve complete block), fit to the following equation: […]
# To assess current run-down over the course of the experiment vehicle-only wells were utilized and the normalized current with vehicle-only (n.IVEH) was determined. To correct the compound response for run-down, the currents were corrected according to the following formula: […]
# Compound inhibition was fitted to the following Hill Equation to estimate the half maximal inhibition concentration (IC50)
# [formula] • where Y is the normalized run-down corrected inhibition relative to the vehicle control (equivalent to n.IRD_Correct), C the test compound concentration, IC50 the concentration of test compound to inhibit the sodium current by 50%, and h the Hill coefficient.
# human Nav1.8, sequence (Q9Y5Y9 whole entry): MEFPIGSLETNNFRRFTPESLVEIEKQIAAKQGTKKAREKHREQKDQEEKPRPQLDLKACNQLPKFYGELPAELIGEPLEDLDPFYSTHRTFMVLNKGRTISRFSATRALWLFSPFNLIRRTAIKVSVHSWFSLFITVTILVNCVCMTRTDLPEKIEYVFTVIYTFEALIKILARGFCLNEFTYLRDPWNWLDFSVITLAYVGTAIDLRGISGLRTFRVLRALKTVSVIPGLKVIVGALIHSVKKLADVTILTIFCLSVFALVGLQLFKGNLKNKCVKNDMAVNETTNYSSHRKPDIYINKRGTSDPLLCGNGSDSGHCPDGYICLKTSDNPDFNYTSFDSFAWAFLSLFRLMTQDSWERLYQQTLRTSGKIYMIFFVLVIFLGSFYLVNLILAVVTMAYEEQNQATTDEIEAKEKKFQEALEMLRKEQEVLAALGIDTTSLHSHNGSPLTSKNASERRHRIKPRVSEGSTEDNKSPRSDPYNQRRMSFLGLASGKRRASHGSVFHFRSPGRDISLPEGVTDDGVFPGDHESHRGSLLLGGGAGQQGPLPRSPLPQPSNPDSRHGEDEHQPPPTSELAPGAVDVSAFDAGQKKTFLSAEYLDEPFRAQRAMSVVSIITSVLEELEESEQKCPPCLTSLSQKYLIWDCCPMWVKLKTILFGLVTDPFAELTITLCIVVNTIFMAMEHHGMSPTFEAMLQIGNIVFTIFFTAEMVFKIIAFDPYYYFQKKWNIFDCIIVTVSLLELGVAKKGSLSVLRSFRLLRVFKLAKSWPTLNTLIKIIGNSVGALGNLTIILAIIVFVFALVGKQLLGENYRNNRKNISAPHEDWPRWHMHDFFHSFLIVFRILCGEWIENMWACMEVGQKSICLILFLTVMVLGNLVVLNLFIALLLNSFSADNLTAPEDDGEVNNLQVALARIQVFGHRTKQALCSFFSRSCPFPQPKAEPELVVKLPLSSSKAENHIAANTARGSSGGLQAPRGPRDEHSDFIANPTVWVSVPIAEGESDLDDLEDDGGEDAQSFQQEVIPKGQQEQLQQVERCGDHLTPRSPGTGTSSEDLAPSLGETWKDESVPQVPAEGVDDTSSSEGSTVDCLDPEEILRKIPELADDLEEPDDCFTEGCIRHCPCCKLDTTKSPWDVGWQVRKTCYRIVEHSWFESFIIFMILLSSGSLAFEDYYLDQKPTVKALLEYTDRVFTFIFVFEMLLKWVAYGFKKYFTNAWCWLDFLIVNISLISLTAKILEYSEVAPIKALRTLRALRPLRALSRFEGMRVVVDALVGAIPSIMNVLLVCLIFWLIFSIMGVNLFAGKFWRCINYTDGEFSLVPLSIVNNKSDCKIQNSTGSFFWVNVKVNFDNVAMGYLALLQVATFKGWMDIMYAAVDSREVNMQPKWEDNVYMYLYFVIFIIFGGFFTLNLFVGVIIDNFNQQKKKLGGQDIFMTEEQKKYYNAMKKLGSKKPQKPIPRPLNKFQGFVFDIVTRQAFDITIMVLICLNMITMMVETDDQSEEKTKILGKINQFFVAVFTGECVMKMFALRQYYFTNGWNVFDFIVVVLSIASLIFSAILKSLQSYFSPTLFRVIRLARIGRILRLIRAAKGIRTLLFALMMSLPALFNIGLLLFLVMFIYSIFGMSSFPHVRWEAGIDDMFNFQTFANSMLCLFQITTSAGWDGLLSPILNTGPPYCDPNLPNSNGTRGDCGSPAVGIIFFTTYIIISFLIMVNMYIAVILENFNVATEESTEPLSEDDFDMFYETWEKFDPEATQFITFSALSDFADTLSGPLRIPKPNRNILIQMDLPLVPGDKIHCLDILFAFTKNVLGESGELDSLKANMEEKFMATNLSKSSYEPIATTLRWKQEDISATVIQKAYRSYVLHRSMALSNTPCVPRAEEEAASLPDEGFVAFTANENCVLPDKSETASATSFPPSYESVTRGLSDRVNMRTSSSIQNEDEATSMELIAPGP
# human Nav1.8, sequence (Q07699 19-218 partner): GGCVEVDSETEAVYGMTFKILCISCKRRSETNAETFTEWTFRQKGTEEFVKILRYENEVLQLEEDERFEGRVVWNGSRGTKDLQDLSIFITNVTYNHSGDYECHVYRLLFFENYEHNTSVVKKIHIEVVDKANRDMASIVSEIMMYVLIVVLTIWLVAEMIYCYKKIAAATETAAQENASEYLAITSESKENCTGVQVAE
row,Compound,"Nav1.8, pIC50"
1,"N#Cc1cc2c(cc1F)C(=O)N1CN2c2ccc(F)c(Cl)c2CNCCc2[nH]c(=O)ccc21 [Example 67, 9-chloro-2,8-difluoro-15,19-dioxo-10,11,12,13,14,15-hexahydro-19H-5,18-methanodibenzo[c,f]pyrido[3,2-j][1,5,9]triazacyclotridecine-3-carbonitrile]",8.3
2,"Cl.O=C1c2cc(F)c(C(F)(F)F)cc2N2CN1c1ccc(=O)[nH]c1CCNCc1c2ccc(F)c1F [Example 48, 2,8,9-Trifluoro-3-(trifluoromethyl)-10,11,12,13-tetrahydro-19H-5,18-methanodibenzo[c,f]pyrido[3,2-j][1,5,9]triazacyclotridecine-15,19(14H)-dione hydrochloride]",8.1
3,"O=C1c2ccc(C(F)(F)F)cc2N2CN1c1ccc(=O)[nH]c1NCCCCc1cc(F)ccc12 [Example 12, 3^4-Fluoro-2^7-(trifluoromethyl)-1^1,1^2,2^1,2^2,2^3,2^4-hexahydro-8-aza-2(3,1)-quinazolina-1(5,6)-pyridina-3(1,2)-benzenacyclooctaphane-1^2,2^4-dione]",7.6
4,"O=C1c2cc(Cl)cnc2N2CN1c1ccc(=O)[nH]c1CCNCc1cc(F)ccc12 [Example 42, 2-Chloro-8-fluoro-10,11,12,13-tetrahydro-19H-5,18-methanodibenzo[c]dipyrido[2,3-f:3′,2′-j][1,5,9]triazacyclotridecine-15,19(14H)-dione]",6.9
5,"Cl.N#Cc1cc2c(cc1Cl)C(=O)N1CN2c2ccc(F)c(F)c2CNCCc2[nH]c(=O)ccc21 [Example 72, 2-Chloro-8,9-difluoro-15,19-dioxo-10,11,12,13,14,15-hexahydro-19H-5,18-methanodibenzo-[c,f]pyrido[3,2-j][1,5,9]triazacyclotridecine-3-carbonitrile hydrochloride]",7.5
6,"O=C1c2ccc(C(F)(F)F)cc2N2CN1c1ccc(=O)[nH]c1CCCCCc1cc(F)ccc12 [Example 8, 3^4-Fluoro-2^7-(trifluoromethyl)-1^1,1^2,2^1,2^2,2^3,2^4-hexahydro-2(3,1)-quinazolina-1(5,6)-pyridina-3(1,2)-benzenacyclooctaphane-1^2,2^4-dione]",8.4
7,"O=C1c2cc(C(F)(F)F)ccc2N2CN1c1ccc(=O)[nH]c1/C=C/Cc1cc(F)ccc12 [Example 1, (E)-8-Fluoro-2-(trifluoromethyl)-13-hydro-10H, 18H,-5,17-methanodibenzo[b,k]pyrido[3,2-f][1,5]diazacyclododecine-14,18-dione]",5.1
8,"CC1Cc2[nH]c(=O)ccc2N2CN(c3ccc(F)cc3CN1)c1cc(C(F)(F)F)c(F)cc1C2=O (racemic) [Example 123, 2,8-Difluoro-12-methyl-3-(trifluoromethyl)-10,11,12,13-tetrahydro-19H-5,18-methanodibenzo-[c,f]pyrido[3,2-j][1,5,9]triazacyclotridecine-15,19(14H)-dione hydrochloride]",6.1
9,"O=C1c2cc(C(F)(F)F)cnc2N2CN1c1ccc(=O)[nH]c1NCCCc1cc(F)ccc12 [Example 34, 8-Fluoro-2-(trifluoromethyl)-10,11,12,13-tetrahydro-19H-5,18-methanodibenzo[i]dipyrido[2,3,-b:3′,2′-f][1,4,8]triazacyclotridecine-15,19(14H)-dione]",6.4
10,"CN1CCCCc2cc(F)ccc2N2CN(C(=O)c3ccc(C(F)(F)F)cc32)c2cc(I)c(=O)[nH]c21 [Example 14, 3^4-Fluoro-1^3-iodo-8-methyl-2^7-(trifluoromethyl)-1^1, 1^2,2^1,2^2,2^3,2^4-hexahydro-8-aza-2(3,1)-quinazolina-1(5,6)-pyridina-3(1,2)-benzenacyclooctaphan-1^2,2^4-dione]",6.9
11,"Cl.O=C1c2cc(F)c(C(F)(F)F)cc2N2CN1c1ccc(=O)[nH]c1CCCNCc1c2ccc(F)c1F [Example 108, 2^6,3^3,3^4-trifluoro-2^7-(trifluoromethyl)-1^1,1^2,2^1,2^2,2^3,2^4-hexahydro-5-aza-2(3,1)-quinazolina-1(5,6)-pyridina-3(1,2)-benzenacyclooctaphane-1^2,2^4-dione hydrochloride]",7.6
12,"O=C1c2cc(C(F)(F)F)ccc2N2CN1c1ccc(=O)[nH]c1CCCOc1cc(F)ccc12 [Example 16, 8-Fluoro-2-(trifluoromethyl)-12,13-dihydro-11H,19H-5,18-methanodibenzo[b,e]pyrido[3,2-i][1]oxa[4,8]diazacyclotridecine-15,19(14H)-dione]",6.0
13,"Cl.N#Cc1cc2c(cc1F)C(=O)N1CN2c2ccc(OC(F)(F)F)cc2CNCCc2[nH]c(=O)ccc21 [Example 88, 2-Fluoro-15,19-dioxo-8-(trifluoromethoxy)-10,11,12,13,14,15-hexahydro-19H-5,18-methanodibenzo[c,f]pyrido[3,2-j][1,5,9]triazacyclotridecine-3-carbonitrile hydrochloride]",7.7
14,"O=C1c2cc(OC(F)(F)F)ccc2N2CN1c1ccc(=O)[nH]c1NCCCc1cc(F)ccc12 [Example 31, 8-Fluoro-2-(trifluoromethoxy)-10,11,12,13-tetrahydro-19H-5,18-methanodibenzo[f,i]pyrido[2,3,-b][1,4,8]triazacyclotridecine-15,19(14H)-dione]",7.5
15,"O=C1c2cnc(C(F)(F)F)cc2N2CN1c1ccc(=O)[nH]c1CCCCCc1cc(F)ccc12 [Example 9, 3^4-Fluoro-2^7-(trifluoromethyl)-1^1,1^2,2^1,2^2,2^3,2^4-hexahydro-2(3,1)-pyrido[4,3-d]pyrimidina-1(5,6)-pyridina-3(1,2)-benzenacyclooctaphane-1^2,2^4-dione]",7.3
16,"CC1NCCc2[nH]c(=O)ccc2N2CN(c3cc(Cl)c(F)cc3C2=O)c2ccc(F)cc21 (racemic) [Example 120, 3-Chloro-2,8-difluoro-10-methyl-10,11,12,13-tetrahydro-19H-5,18-methanodibenzo[c,f]pyrido-[3,2-j][1,5,9]triazacyclotridecine-15,19(14H)-dione hydrochloride]",7
17,"Cl.O=C1c2cc(F)c(F)cc2N2CN1c1ccc(=O)[nH]c1CCNCc1c2ccc(OC(F)(F)F)c1F [Example 87, 2,3,9-Trifluoro-8-(trifluoromethoxy)-10,11,12,13-tetrahydro-19H-5,18-methanodibenzo[c,f]pyrido[3,2-j][1,5,9]triazacyclotridecine-15,19(14H)-dione hydrochloride]",7.9
18,"CN1CCCc2cc(F)ccc2N2CN(C(=O)c3cc(C(F)(F)F)ccc32)c2ccc(=O)[nH]c21 [Example 30, 8-Fluoro-13-methyl-2-(trifluoromethyl)-10,11,12,13-tetrahydro-19H-5,18-methanodibenzo[f,i]pyrido[2,3,-b][1,4,8]triazacyclotridecine-15,19(14H)-dione]",6.9
19,"O=C1c2cc(C(F)(F)F)ccc2N2CN1c1cc[n+]([O-])cc1CCCCCc1cc(F)ccc12 [Example 26, 3^4-Fluoro-2^4-oxo-2^6-(trifluoromethyl)-2^1,2^2,2^3,2^4-tetrahydro-2(3,1)-quinazolina-1(4,3)-pyridin-1-iuma-3(1,2)-benzenacyclooctaphan-1-oxide]",8.3
